Test results taken from the supplement of paper PMC10307832.

Legend:
Test in all cases: relative viability (nuclei count vs DMSO), 5 days (fraction); higher = more cells survive
[1] = compound: COc1cc2ncn(-c3cc(OCc4ccccc4C(F)(F)F)c(C(N)=O)s3)c2cc1OC + CC(=O)Nc1cccc(-n2c(=O)n(C3CC3)c(=O)c3c(Nc4ccc(I)cc4F)n(C)c(=O)c(C)c32)c1 [Trametinib] (partner 0.02 µM)
Procedure, shortened: (§1)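 Relative viability is defined as nuclei in treated wells over nuclei in vehicle wells. Duplicate plates were run and medians reported. Lung cancer cell lines in 1536-well plates were dosed by pin tool one day after seeding, with one drug or with a fixed anchor-drug dose plus five library-drug doses (not always all listed) in √10 steps, and nuclei were counted after 5 days.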

[2] = compound: COc1cc2ncn(-c3cc(OCc4ccccc4C(F)(F)F)c(C(N)=O)s3)c2cc1OC + O=C(c1cc(Cc2n[nH]c(=O)c3ccccc23)ccc1F)N1CCN(C(=O)C2CC2)CC1 [Olaparib] (partner 8 µM)
Procedure, shortened: as §1

[3] = compound: COc1cc2ncn(-c3cc(OCc4ccccc4C(F)(F)F)c(C(N)=O)s3)c2cc1OC + CS(=O)(=O)CCNCc1ccc(-c2ccc3ncnc(Nc4ccc(OCc5cccc(F)c5)c(Cl)c4)c3c2)o1 [Lapatinib] (partner 2 µM)
Procedure, shortened: as §1

[4] = compound: COc1cc2ncn(-c3cc(OCc4ccccc4C(F)(F)F)c(C(N)=O)s3)c2cc1OC + N=C(N)NC(=N)NCCc1ccccc1 [Phenformin] (partner 250 µM)
Procedure, shortened: as §1

Cell Line	relative viability ([1]; first compound 0.05 µM)	relative viability ([1]; first compound 0.1581 µM)	relative viability ([1]; first compound 0.5 µM)	relative viability ([1]; first compound 1.581 µM)	relative viability ([1]; first compound 5 µM)	relative viability ([2]; first compound 0.05 µM)	relative viability ([2]; first compound 0.1581 µM)	relative viability ([2]; first compound 0.5 µM)	relative viability ([2]; first compound 1.581 µM)	relative viability ([2]; first compound 5 µM)	relative viability ([3]; first compound 0.05 µM)	relative viability ([3]; first compound 0.1581 µM)	relative viability ([3]; first compound 0.5 µM)	relative viability ([3]; first compound 1.581 µM)	relative viability ([3]; first compound 5 µM)	relative viability ([4]; first compound 0.05 µM)	relative viability ([4]; first compound 0.1581 µM)	relative viability ([4]; first compound 0.5 µM)	relative viability ([4]; first compound 1.581 µM)	relative viability ([4]; first compound 5 µM)
NCI-H1944	0.413	0.42	0.337	0.189	0.123	0.415	0.445	0.304	0.152	0.122	0.972	1	0.729	0.165	0.114	0.211	0.234	0.174	0.106	0.0856
HARA	0.423	–	0.609	0.149	0.0917	0.317	–	0.261	0.131	0.105	0.74	0.797	0.7	0.169	0.0753	0.469	0.395	0.364	0.0656	0.0542
NCI-H2126	0.535	0.582	0.478	0.27	0.205	0.813	0.86	0.449	0.238	0.241	0.772	0.776	0.636	0.352	0.244	0.481	0.579	0.367	0.265	0.261
LXF-289	0.685	0.551	0.491	0.142	0.0968	0.704	0.817	0.269	0.0639	0.0504	0.912	0.709	0.647	0.147	0.0707	0.437	0.466	0.256	0.0678	0.0402
NCI-H460	0.247	0.101	0.102	0.0172	0.0148	0.468	0.357	0.0734	0.0365	0.0215	1.03	0.592	0.486	0.0094	0.0099	0.476	0.49	0.0454	0.0127	0.0125
NCI-H1395	1.11	0.977	0.828	0.39	0.287	0.441	0.476	0.414	0.326	0.314	0.928	1.37	0.818	0.354	0.41	0.459	0.438	0.386	0.335	0.295
NCI-H2170	0.96	0.885	0.246	0.159	0.153	0.566	0.444	0.166	0.168	0.148	0.262	0.241	0.244	0.221	0.2	0.444	0.351	0.32	0.195	0.179
NCI-H2009	0.248	0.251	0.287	0.129	0.0949	0.604	0.623	0.171	0.107	0.0932	0.868	0.777	0.318	0.169	0.146	0.436	0.333	0.192	0.124	0.111
